Experimental data: patent publication US20060121449A1, “Method for selection of compounds which inhibit clonal cell growth and use thereof” (priority 2002, published 2006)
Entries after “also recorded” stand apart in the source; their conditions may differ. Where two headings read alike, the source gives them in different places.

Columns and labels:
[1] = tested on: polyoma virus transformed BHK21/c13 cells, clone S100T1; experiment: Clonal test: clonal growth of S100T1 cells in soft agar (Exp 2, 4, 6, 15, 16); format: cell-based, hamster; conditions: for Growth, results after 3 days / Concentration inhibiting (stopping) clonal growth: Exp 2; for Growth, results after 3 days: 400000 S100T1 cells, 1.5% agarose; for Concentration inhibiting (stopping) clonal growth: S100T1, 1.5% agarose, 3 days; for Clonal growth, result day 7: Exp 4, 3 μM, 120000 S100T1 cells, 1.1% agarose; for Significance / Growth: 4-OH—OPB No 11; for Clonal inhibition: S100T1
Ehrlich ascites tumour = conditions: for Rescue of mice from transplanted Ehrlich tumour: suboptimal (moderate) dose alone, started the day after transplantation
Procedure: Tumour cells harvested from ascitic mouse were mainly solitary.
The experiment describes transplantation of the malignant mouse Ehrlich ascites tumour to two adult male mice (NMRI/Bom). Each of them received 100000 cells intraperitonally. One mouse was treated two times a week with 4-OH-OPB intraperitonally.
Cells were injected 90 minutes after the addition of 4-OH-OPB to the suspension. The control received the same cell suspension without 4-OH-OPB.
At the same time, dilutions of 4-OH-OPB were injected intraperitonally to the transplanted mice in order to find the smallest active dose.
The cells from ascites in the untreated control mouse was frozen on serum with 10% DMSO. The cells were thawed in water of 37° C., diluted in serum, and pelleted by low speed centrifugation after the addition of 2 ml FBS, to remove DMSO.
Each animal received such cells suspended in portions of 1 ml in RPMI (pH˜6.9).
The frozen and thawed Ehrlich ascites cells are diluted in a volume of 1 ml RPMI (pH˜6.9) for each animal. No calf serum was added to the medium to avoid immunisation of the mice.
Cell number: 90000 tumour cells in 0.7 ml RPMI were injected intraperitonally to each animal.
The total cell number in the ampoule was 7.5 million cells. The cells were thawed, and 2 ml FBS was added before low speed centrifugation. […] Than separate vessels were prepared for each animal. The cell tube for animal number 3 received Colchicine as indicated in the table on day 0 one hour before the cells were injected.
After mixing the same volume was transferred from this tube to the last tube.
The content of the last two tubes was injected intraperitonally to each of the mice number 1 and 2 respectively.

[2] = Exp 7, 1.62 μl 20 mM i.p. two times a week, 45.5 at day 0
[3] = Exp 8 mouse 1: 1.26 μl 20 mM i.p. from day 0 (42 μM i.p.)
[4] = Exp 8 mouse 2: 0.42 μl 20 mM i.p. from day 0 (14 μM i.p.)
[5] = Exp 8 mouse 3: 0.14 μl 20 mM i.p. from day 0 (4.7 μM i.p.)
[6] = Exp 8 mouse 4: 0.047 μl 20 mM i.p. from day 0 (1.6 μM i.p.)
[7] = Exp 8 mouse 6: 1.13 μl 20 mM i.p., first injection 24 h after tumour (37.7 μM i.p.)
[8] = Exp 8 mouse 7: 1.09 μl 20 mM i.p., first injection 3 days after tumour
[9] = Exp 8 mouse 7: 1.09 μl 20 mM i.p., first injection 3 days after tumour (36.3 μM i.p.)
[10] = Exp 8 mouse 7: 1.09 μl 20 mM i.p., first injection 3 days after tumour (36.3 μM i.p.), listed as 4-OH—OPB

**Q.** Which results are given for `CCCCC1(O)C(=O)N(c2ccccc2)N(c2ccc(O)cc2)C1=O` (stereo not drawn) [4-OH-OPB, 4-butyl-4-hydroxy-2(p-hydroxyphenyl)-1-phenyl-3,5-pyrazolidinedione]?
**A.** Growth, results after 3 days ([1]; 500 nM): inhibited; Growth, results after 3 days ([1]; 1000 nM): inhibited; Growth, results after 3 days ([1]; 1500 nM): inhibited; Growth, results after 3 days ([1]; 2000 nM): inhibited; Growth, results after 3 days ([1]; 3000 nM): inhibited; Concentration inhibiting (stopping) clonal growth [1]: ≥ 500 nM; Concentration inhibiting (stopping) clonal growth ([1]; listed as 4-OH—OPB): Even 500 nM stopped clonal growth; Clonal growth, result day 7 [1]: no growth was observed; Clonal growth, result day 7 ([1]; listed as 4-OH—OPB): Single cells only; also recorded: Completely stopped clonal growth in; Susceptibility after single cells had formed small clones (colonies) ([1]; Exp 6): no longer susceptible; Concentration giving good clonal inhibition ([1]; Exp 6, S100T1, 120000 cells, treatment immediately after seeding): above 1 μM; Growth inhibition at 30 μM when treatment delayed 24 hours ([1]; Exp 6, S100T1, small colonies already formed): small growth inhibition; also recorded: some inhibition of growth; Susceptibility after single cells had formed small clones (colonies) ([1]; Exp 6, listed as 4-OH—OPB): they were not susceptible any more.; Effect on clonal growth at 2 and 20 μM ([1]; Exp 15, 32000 S100T1 cells/well): inhibiting clonal growth; Control compared with the other compounds ([1]; Exp 16): clearly better than any other; Significance ([1]; Exp 16 day 14, 0.67 μM): yes; Growth ([1]; Exp 16 day 14, 0.67 μM in wells): −; Significance ([1]; Exp 16 day 14, 6.7 μM): yes; Growth ([1]; Exp 16 day 14, 6.7 μM in wells): −; Significance ([1]; Exp 16 day 21, 0.67 μM): yes; Growth ([1]; Exp 16 day 21, 0.67 μM in wells): −; Significance ([1]; Exp 16 day 21, 6.7 μM): yes; Growth ([1]; Exp 16 day 21, 6.7 μM in wells): −; Clonal inhibition ([1]; 0.3 μM added after 24 hours, read after 48 hours): 0; Clonal inhibition ([1]; 0.3 μM added immediately, read after 24 hours): 0; Clonal inhibition ([1]; 0.3 μM added immediately, read after 48 hours): 0; Clonal inhibition ([1]; 1 μM added after 24 hours, read after 48 hours): 0; Clonal inhibition ([1]; 1 μM added immediately, read after 24 hours): +; Clonal inhibition ([1]; 1 μM added immediately, read after 48 hours): 0; Clonal inhibition ([1]; 3 μM added after 24 hours, read after 48 hours): 0; Clonal inhibition ([1]; 3 μM added immediately, read after 24 hours): ++; Clonal inhibition ([1]; 3 μM added immediately, read after 48 hours): +−; Clonal inhibition ([1]; 10 μM added after 24 hours, read after 48 hours): 0; Clonal inhibition ([1]; 10 μM added immediately, read after 24 hours): +++; Clonal inhibition ([1]; 10 μM added immediately, read after 48 hours): +; Clonal inhibition ([1]; 30 μM added after 24 hours, read after 48 hours): +; Clonal inhibition ([1]; 30 μM added immediately, read after 48 hours): +++; Anti-clonal effect, summary of Exp 16 ([1]; S100T1 in soft agar): 4-OH—OPB inhibited clones without escaping colonies.; Inhibition of clonal growth at 300 nM ([1]; other/earlier experiments): no inhibition; Weight of treated mouse, day 14 (Ehrlich ascites tumour; [2]): 42.6 g; Weight of treated mouse, day 18 (Ehrlich ascites tumour; [2]): 44.3 g; Tumour findings in treated mouse after 19 days (Ehrlich ascites tumour; Exp 7, 1.62 μl 20 mM i.p. two times a week, 100000 Ehrlich cells i.p.): No tumour was detected; also recorded: completely normal without any palpable tumour or signs of ascites or anaemia; also recorded: no pathological signs; also recorded: no tumour or ascites observable; Ascites (Ehrlich ascites tumour; Exp 7 treated animal, day 19): 0 grams; Fibrinous material under diaphragm (Ehrlich ascites tumour; Exp 7 treated animal, day 19): 0 grams; Size of organs: Hart (Ehrlich ascites tumour; Exp 7 treated animal, day 19): 0.20 grams; Size of organs: Kidneys (Ehrlich ascites tumour; Exp 7 treated animal, day 19): 0.57 grams; Size of organs: Liver (Ehrlich ascites tumour; Exp 7 treated animal, day 19): 2.38 grams; Size of organs: Lungs (Ehrlich ascites tumour; Exp 7 treated animal, day 19): 0.3 grams; Size of organs: Omentum (Ehrlich ascites tumour; Exp 7 treated animal, day 19): 2.36 grams; Size of organs: Spleen (Ehrlich ascites tumour; Exp 7 treated animal, day 19): 0.184 grams; Tumour in groin (Ehrlich ascites tumour; Exp 7 treated animal, day 19): 0 grams; Dose that did not cure when begun the next day or 3 days after transplantation, relative to minimum curative dose (Ehrlich ascites tumour; Exp 8): about 9 times; Smallest effective dose, in extracellular fluid (Ehrlich ascites tumour; Exp 8): 0.37 µM; Start of treatment needed for complete rescue (Ehrlich ascites tumour; Exp 8): The treatment had to start immediately; Outcome when therapy started 24 hours after transplantation or later (Ehrlich ascites tumour; Exp 8, doses in abdomen of 36-38 μM): development of ascites or ascites with solid tumour in addition; Smallest effective (inhibiting) concentration in the peritoneum (Ehrlich ascites tumour; Exp 8, injected together with the cells and then twice a week): dose was 4.8 μM.; Day 15 status (Ehrlich ascites tumour; [3]): healthy; Day 15 weight (Ehrlich ascites tumour; [3]): 33.9 gram; Day 15 weight/initial weight (Ehrlich ascites tumour; [3]): 0.96; Result (tumour growth) (Ehrlich ascites tumour; [3]): No tumour; Section day 17 (Ehrlich ascites tumour; [3]): No pathology found, neither ascites nor solid tumours; Section day 17 (Ehrlich ascites tumour; Exp 8 mouse 1: 1.26 μl 20 mM i.p. from day 0 (42 μM i.p.), listed as 4-OH—OPB): healthy, no tumour; Day 15 status (Ehrlich ascites tumour; [4]): healthy; Day 15 weight (Ehrlich ascites tumour; [4]): 38.7 gram; Day 15 weight/initial weight (Ehrlich ascites tumour; [4]): 0.97; Section day 17 (Ehrlich ascites tumour; [4]): No pathology found, neither ascites nor solid tumours; Section day 17 (Ehrlich ascites tumour; Exp 8 mouse 2: 0.42 μl 20 mM i.p. from day 0 (14 μM i.p.), listed as 4-OH—OPB): healthy, no tumour; Day 15 status (Ehrlich ascites tumour; [5]): healthy; Day 15 weight (Ehrlich ascites tumour; [5]): 29.3 gram; Day 15 weight/initial weight (Ehrlich ascites tumour; [5]): 1.1; Section day 17 (Ehrlich ascites tumour; [5]): No pathology was found, neither ascites nor solid tumours; Section day 17 (Ehrlich ascites tumour; Exp 8 mouse 3: 0.14 μl 20 mM i.p. from day 0 (4.7 μM i.p.), listed as 4-OH—OPB): healthy, no tumour; Ascites relative to control (Ehrlich ascites tumour; [6]): Ascites (0.66 of contr.) + solid; Day 15 status (Ehrlich ascites tumour; [6]): Ascites; Day 15 weight (Ehrlich ascites tumour; [6]): 37.4 gram; Day 15 weight/initial weight (Ehrlich ascites tumour; [6]): 1.33; Result (tumour growth) (Ehrlich ascites tumour; [6]): Lens-sized tumour at injection site in left abdominal wall; Section day 17: ascites (Ehrlich ascites tumour; Exp 8 mouse 4: 0.047 μl 20 mM i.p. from day 0 (1.6 μM i.p.), control 6.8 ml): 4.5 mL; Section day 17: ascites (Ehrlich ascites tumour; Exp 8 mouse 4: 0.047 μl 20 mM i.p. from day 0 (1.6 μM i.p.), control 6.8 ml, listed as 4-OH—OPB): 4.5 ml ascites; Result (tumour growth) (Ehrlich ascites tumour; Exp 8 mouse 4: 0.047 μl 20 mM i.p. from day 0 (1.6 μM i.p.), listed as 4-OH—OPB): Ascites (0.66 of contr.) + solid; Ascites relative to control (Ehrlich ascites tumour; [7]): Ascites (0.47 of contr.) + solid; Day 15 status (Ehrlich ascites tumour; [7]): Healthy; Day 15 weight (Ehrlich ascites tumour; [7]): 34.5 gram; Day 15 weight/initial weight (Ehrlich ascites tumour; [7]): 1.09; Result (tumour growth) (Ehrlich ascites tumour; [7]): At injection site circular branched tumour; Section day 17: ascites (Ehrlich ascites tumour; Exp 8 mouse 6: 1.13 μl 20 mM i.p., first injection 24 h after tumour (37.7 μM i.p.), control 6.8 ml): 3.15 mL; Section day 17: ascites (Ehrlich ascites tumour; Exp 8 mouse 6: 1.13 μl 20 mM i.p., first injection 24 h after tumour (37.7 μM i.p.), control 6.8 ml, listed as 4-OH—OPB): 3.2 ml ascites, inj. site; Result (tumour growth) (Ehrlich ascites tumour; Exp 8 mouse 6: 1.13 μl 20 mM i.p., first injection 24 h after tumour (37.7 μM i.p.), listed as 4-OH—OPB): Ascites (0.47 of contr.) + solid; Tumour size, Day 8 (Ehrlich ascites tumour; [8]): Tumour = grain; Tumour size, Day 10 (Ehrlich ascites tumour; [8]): Tumour > grain; Ascites relative to control (Ehrlich ascites tumour; [9]): 0.00022 % of contr.; Day 15 status (Ehrlich ascites tumour; [9]): lens-sized; Day 15 weight (Ehrlich ascites tumour; [9]): 30.5 gram; Day 15 weight/initial weight (Ehrlich ascites tumour; [9]): 1.00; Section day 17: ascites (Ehrlich ascites tumour; [9]): 0.015 mL; Section day 17: solid tumour (Ehrlich ascites tumour; [9]): pea-sized; Result (tumour growth) (Ehrlich ascites tumour; [10]): Ascites; also recorded: contr.) + solid; Section day 17: ascites (Ehrlich ascites tumour; [10]): site, 15 μl ascites,; Section day 17: solid tumour (Ehrlich ascites tumour; [10]): Pea-size tumour at inj.; tumour in abdominal wall, findings on section (Ehrlich ascites tumour; Exp 18, at killing, control 2 × 3 mm tumour): Lens sized; ascites with Ehrlich cells, findings on section (Ehrlich ascites tumour; Exp 18, at killing, control 4 ml): 0.1 mL; day 14 status (Ehrlich ascites tumour; Exp 18, day 14 after ip transplantation, mouse 1 killed, mice 2 and 3 marked '?'): Ascites; weight gain in % (Ehrlich ascites tumour; Exp 18, one mouse each, ip: mouse 1 4-OH—OPB from day 1, mouse 2 Etoposide + 4-OH—OPB from day 1, mouse 3 Colchicine from day 0, control mouse 42.4): 32.3%; Rescue of mice from transplanted Ehrlich tumour (Ehrlich ascites tumour; Exp 18): missing cure; Rescue of mice from transplanted Ehrlich tumour (Ehrlich ascites tumour; Exp 18, listed as 4-OH—OPB): not rescued. Colchicine alone in high dose did
